The conditions of data set [1]: cited from earlier work.
For data set [2] the following is noted: cited from earlier work. This is another data set of the same source.
For another data set, the target named is T1, DOPA decarboxylase (Mus musculus, UniProt O88533).
T1 construct: using the mouse striatum as a source of the decarboxylase enzyme; from tissue; host or cells: mouse striatum
T1 sequence (O88533 1-480): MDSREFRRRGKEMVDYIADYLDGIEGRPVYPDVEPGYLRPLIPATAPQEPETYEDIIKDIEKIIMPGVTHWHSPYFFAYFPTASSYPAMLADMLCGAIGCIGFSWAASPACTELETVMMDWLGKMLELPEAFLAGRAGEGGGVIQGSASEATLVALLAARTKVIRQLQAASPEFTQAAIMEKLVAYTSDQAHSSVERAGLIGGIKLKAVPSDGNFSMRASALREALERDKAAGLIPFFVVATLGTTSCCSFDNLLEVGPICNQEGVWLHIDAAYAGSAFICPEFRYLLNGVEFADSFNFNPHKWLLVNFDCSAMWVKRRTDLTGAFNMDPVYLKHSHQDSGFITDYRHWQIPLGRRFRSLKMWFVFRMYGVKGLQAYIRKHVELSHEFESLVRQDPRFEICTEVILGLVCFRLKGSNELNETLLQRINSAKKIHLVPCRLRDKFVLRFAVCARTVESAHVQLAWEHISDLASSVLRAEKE
Kind of data set: DOPA-decarboxylase assay (substrate test). In kind it is biochemical. Further details: activity of DOPA decarboxylase with the substance as substrate: unit not given here. The settings on record: mouse striatum enzyme. The procedure: DOPA-decarboxylase assay: As discussed hereinabove, one of the limitations associated with treatment with L-DOPA is its decarboxylation in the periphery by a DOPA decarboxylase, which reduces the amount the amount of L-DOPA that crosses the BBB.
The assay was carried out according to Hadjiconstantinou et al. [Aromatic L-amino acid decarboxylase activity of mouse striatum is modulated via dopamine receptors. J Neurochem. 1993 June; 60(6):2175-80], using the mouse striatum as a source of the decarboxylase enzyme.
The activity of the DOPA decarboxylase was thus tested with L-DOPA, DOPA-ethyl ester and LDA. L-DOPA ethyl ester (Compound 1), known as a much poorer substrate of the decarboxylase, served as a control was used as a control in these assays.

Data set [3] deals with unilaterally 6-hydroxydopamine-lesioned male rats. Kind of data set: Rotation experiments (rotometer), LDA administered intraperitoneally. In kind it is in vivo, rat. The procedure: (§1) The in vivo activity of LDA administered intravenously (iv) and intraperitoneally (ip) was evaluated using rotations experiments, conducted and based in accordance with published studies, as follows:
(§2) Briefly, Dunnet's experiment uses PD induced animal models which are treated with a unilateral lesion to the brain that effects their motorial behavior. In case of rats, they turn away from the side of the lesion when treated with an agent which increases the dopamine brain level. In order to quantify this effect, a device called rotometer is used, which records the circling behavior of the tested rat by counting the number of clockwise (CW) and counter clockwise (CCW) rotations the animal is turning in a hemisphere-shaped bowl which encourages a circling behavior.
(§3) Thus, twenty unilaterally 2,4,5-trihydroxyphenethylamine (6-hydroxydopamine)-lesioned male rats, weighing about 300 grams (obtained from Harlan, Rehovoth Israel) were treated with LDA and carbidopa, as is detailed hereinbelow. […] Pharmacol Toxicol. 93(2):66-70].
(§4) Treatment was performed by intravenously or intraperitoneally administering the LDA.
Intraperitoneal Experiments: Four rats were treated with 6-hydroxydopamine (8 μg/rat). Rats were then administered with carbidopa (4 mg/kg i.p), and 15 minutes thereafter with 15 mg/kg LDA, administered intraperitoneally. Immediately after LDA injection the rotometer was activated and the rats were monitored during 3 hours.

Data set [4] has the same test system. In words: Rotation experiments (rotometer), LDA administered intravenously. In kind it is in vivo, rat. The conditions noted are these: for CCW (counter clockwise rotations) / CW (clockwise rotations) / CW − CCW: carbidopa 4 mg/kg ip 15 minutes before, one line per rat, preliminary. The procedure: as §1, §2, §3, §4
Intravenous (iv) Experiments: Rats were intravenously injected with 24 mg/kg or 40 mg/kg LDA. All rats received 4 mg/kg carbidopa, intraperitoneally, 15 minutes before LDA administration.

The mark [5] stands for this setting: LDA 15 mg/kg ip, carbidopa 4 mg/kg ip 15 minutes before, monitored during 3 hours, one line per rat, preliminary.

Where “and” joins values, the source holds several entries; their conditions need not be identical. Equal values may be shown once.

We go through 4 compounds from US8048926B2, “L-DOPA amide derivatives and uses thereof” (Yissum Research Development Company of the Hebrew …, priority 2003, dated 2011).

For `CCOC(=O)[C@@H](N)Cc1ccc(O)c(O)c1` [Compound 1, L-DOPA ethyl ester], the water solubility result in data set [1] is recorded as “highly water-soluble”. For the same compound, the “hydrolysis to L-DOPA before reaching the brain” value in data set [2] (in vivo) is “fast hydrolysis”. Moreover, the “activity of DOPA decarboxylase with the substance as substrate” value on DOPA decarboxylase (Substrate 50 micromoles) amounted to 227; at DOPA decarboxylase (Substrate 100 micromoles) it was 278; at DOPA decarboxylase (Substrate 150 micromoles), 328; at DOPA decarboxylase (Substrate 250 micromoles), 371; on DOPA decarboxylase (Substrate 500 micromoles), 357; at DOPA decarboxylase (Substrate 1000 micromoles), 350. Moreover, the “substrate of DOPA decarboxylase, in words” value on DOPA decarboxylase was “poor substrate”.
In the case of `N[C@@H](Cc1ccc(O)c(O)c1)C(=O)O` [L-DOPA, 3,4-dihydroxy-L-phenylalanine], in data set [1], the water solubility result is given as “poor water solubility”. Further, in data set [2] (peripheral administration), the “share of administered levodopa that enters the brain unaltered” value was 1-3%. Moreover, the “activity of DOPA decarboxylase with the substance as substrate” value is reported as 3241 on DOPA decarboxylase (Substrate 50 micromoles); 3839 at DOPA decarboxylase (Substrate 100 micromoles); 3828 on DOPA decarboxylase (Substrate 150 micromoles); 4332 on DOPA decarboxylase (Substrate 250 micromoles); 4612 at DOPA decarboxylase (Substrate 500 micromoles); 3933 on DOPA decarboxylase (Substrate 1000 micromoles).
Regarding `NC(=O)[C@@H](N)Cc1ccc(O)c(O)c1` [LDA + Carbidopa], the “CCW (counter clockwise rotations)” value in data set [3] (setting [5]) was 22 and 50 and 74 and 109; in data set [4] (LDA 24 mg/kg iv) it was 128 and 134; in data set [4] (LDA 40 mg/kg iv) it was 724 and 14 and 59. The “CW (clockwise rotations)” value was 56 and 361 and 123 and 111 in data set [3] (setting [5]); 686 and 629 in data set [4] (LDA 24 mg/kg iv); 1563 and 970 and 573 in data set [4] (LDA 40 mg/kg iv). In addition, the “CW − CCW” value in data set [3] (setting [5]) was 34 and 311 and 49 and 2; in data set [4] (LDA 24 mg/kg iv) it was 558 and 495; in data set [4] (LDA 40 mg/kg iv) it was 839 and 956 and 514.
With `NC(=O)C(N)Cc1ccc(O)c(O)c1` (stereo not drawn) [LDA, α-amino-3,4-dihydroxy-benzenepropanamide], in data set [3] (LDA administered intraperitoneally), the “improving the behavior of lesioned animals” value is listed as “highly active”. In data set [4] (increasing relative amount of carbidopa with respect to LDA), the “effect of co-administration of carbidopa on the activity of LDA” value was “positively affect the activity of LDA”. Also, the “duration of the rotation effect” value in data set [4] (intravenous LDA together with carbidopa, data not shown) is listed as “more than 2 hours”. Also, the “substrate of DOPA decarboxylase, in words” value on DOPA decarboxylase is recorded as “not a substrate”. The “activity of the enzyme (formation of dopamine) with the substance as substrate, in words” value on DOPA decarboxylase (assay performed twice) is “No activity of the enzyme was detected”.
